The source of these data is patent US11400093B2, “Deuterated elagolix-like compositions and methods” (Lupin Inc., priority 2019, dated 2022).

Format in all cases: in vitro ADME
Data set [1] relates to cDNA-expressed CYP1A2, CYP2A6, CYP2B6, CYP2C8, CYP2C9, CYP2C19, CYP2D6, CYP2E1, CYP3A4, and CYP3A5. Briefly: Metabolism by cDNA-expressed human CYP enzymes, all isoforms (parent remaining). The settings on record: for average percent of parent compound remaining for all isoforms and concentrations: 1.0 μM and 10 μM, 120 minutes incubation, all ten CYP isoforms. As to the method:
(§1) A study was conducted to determine the effect of deuteration on the metabolism of elagolix by human cytochrome P450 (CYP) enzymes. The metabolism of 4-[[(1R)-2-[5-(2-fluoro-3-methoxyphenyl)-3-[[2-fluoro-6(trifluoromethyl)phenyl]methyl]-3,6-dihydro-4-methyl-2,6-dioxo-1(2H)-pyrimidinyl]-1-phenylethyl]amino] butanoic acid-d3 (elagolix-d3) sodium salt and 4-[[(1R)-2-[5-(2-fluoro-3-methoxyphenyl)-3-[[2-fluoro-6(trifluoromethyl)phenyl] methyl]-3,6-dihydro-4-methyl-2,6-dioxo-1(2H)-pyrimidinyl]-1-phenylethyl]amino] butanoic acid-d6 (elagolix-d6) sodium salt by cDNA-expressed CYP enzymes were investigated in vitro and compared to results obtained with undeuterated elagolix to determine which human cytochrome P450 (CYP) enzymes are involved in the metabolism of elagolix, elagolix-d3, and elagolix-d6.
Commercially available cDNA-expressed human CYP enzymes were used for this study.
A 600 μL reaction mixture containing enzyme protein, NADPH generating system (1.3 mM NADP+, 3.3 mM glucose-6-phosphate, 0.4 U/mL glucose-6-phosphate dehydrogenase, 3.3 mM magnesium chloride) and each test article (elagolix, elagolix-d3, elagolix-d6) at two concentrations (e.g. 1 μM and 10 μM) in 100 mM potassium phosphate (pH 7.4) was incubated at 37° C. At two time points (0 and 120 min), the reaction was stopped by removing an aliquot and combining it with an equal volume of cold acetonitrile containing an internal standard (deuterated elagolix was used as the internal standard for elagolix, and elagolix was used as the internal standard for elagolix-d3 and -d6) and placed on ice. Samples were centrifuged to pellet the protein and the supernatant was frozen at −20° C. for subsequent analysis by LC-MS/MS.
Protein concentrations were constant for all isoforms within each experiment and standardized by the addition of control microsomes. Incubations were performed in duplicate. Incubations with vector control enzyme preparations and without enzyme source were included as negative controls.
All other positive controls were assayed at one concentration in duplicate in accordance with the methods described above. The percent of parent remaining at the end of the incubation was compared to 0 min based on the peak area ratio of the substrate and internal standard.
LC-MS/MS methods for elagolix, elagolix-d3, and elagolix-d6 were developed. The fraction of parent compound remaining compared to 0 min was determined based on peak area ratio (analyte/internal standard).
Elagolix, elagolix-d3, and elagolix-d6 at 1.0 μM and 10 μM were each incubated in the presence of cDNA-expressed CYP1A2, CYP2A6, CYP2B6, CYP2C8, CYP2C9, CYP2C19, CYP2D6, CYP2E1, CYP3A4, and CYP3A5 for 120 minutes. The average percent of parent compound remaining for all isoforms and concentrations was >11% for elagolix, >60% for elagolix-d3, and >26% for elagolix-d6.

Data set [2] deals with T1, cDNA-expressed CYP2D6 (Homo sapiens, UniProt P10635).
T1 construct: purchased
In words: Metabolism by cDNA-expressed CYP2D6 (parent remaining). Particulars: 1 μM, 120 min. As to the method:
as §1
(§2) Commercially available cDNA-expressed human CYP enzymes were used for this study. […]
(§3) LC-MS/MS methods for elagolix, elagolix-d3, and elagolix-d6 were developed. The fraction of parent compound remaining compared to 0 min was determined based on peak area ratio (analyte/internal standard). […]

Data set [3] addresses T2, cDNA-expressed CYP3A5 (Homo sapiens, UniProt P20815).
T2 construct: purchased
Briefly: Metabolism by cDNA-expressed CYP3A5 (parent remaining). Particulars: 1 μM, 120 min. As to the method:
as §1, §2, §3

Some results are limits rather than exact numbers.

T2 sequence (P20815 whole entry): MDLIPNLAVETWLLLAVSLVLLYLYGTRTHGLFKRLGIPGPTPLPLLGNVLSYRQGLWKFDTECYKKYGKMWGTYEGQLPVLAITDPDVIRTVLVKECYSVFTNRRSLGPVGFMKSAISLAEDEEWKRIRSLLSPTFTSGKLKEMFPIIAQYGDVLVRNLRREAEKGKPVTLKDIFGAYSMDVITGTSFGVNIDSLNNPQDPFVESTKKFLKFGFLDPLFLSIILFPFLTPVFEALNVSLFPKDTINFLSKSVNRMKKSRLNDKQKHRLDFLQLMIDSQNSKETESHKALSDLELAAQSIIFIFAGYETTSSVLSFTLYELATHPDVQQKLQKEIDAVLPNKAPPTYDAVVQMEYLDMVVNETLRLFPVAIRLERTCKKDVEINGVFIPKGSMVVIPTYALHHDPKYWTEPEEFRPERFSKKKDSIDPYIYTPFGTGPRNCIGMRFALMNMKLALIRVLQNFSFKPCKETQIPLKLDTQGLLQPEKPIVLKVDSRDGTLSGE
T1 sequence (P10635 whole entry): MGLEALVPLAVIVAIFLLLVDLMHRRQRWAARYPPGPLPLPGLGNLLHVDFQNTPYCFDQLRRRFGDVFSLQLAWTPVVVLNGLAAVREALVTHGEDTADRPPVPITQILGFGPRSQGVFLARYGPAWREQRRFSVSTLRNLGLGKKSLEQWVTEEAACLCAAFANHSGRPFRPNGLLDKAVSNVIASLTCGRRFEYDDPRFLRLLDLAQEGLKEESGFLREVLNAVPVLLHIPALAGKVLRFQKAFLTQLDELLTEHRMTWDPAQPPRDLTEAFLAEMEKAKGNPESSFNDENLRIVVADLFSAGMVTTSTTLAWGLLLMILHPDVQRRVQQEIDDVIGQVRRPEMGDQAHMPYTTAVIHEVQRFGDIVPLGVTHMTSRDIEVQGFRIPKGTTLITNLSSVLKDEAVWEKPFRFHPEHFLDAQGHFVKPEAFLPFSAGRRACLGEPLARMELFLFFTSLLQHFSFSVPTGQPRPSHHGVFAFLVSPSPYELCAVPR

Turning to `COc1cccc(-c2c(C)n(Cc3c(F)cccc3C(F)(F)F)c(=O)n(C[C@H](NCCCC(=O)O)c3ccccc3)c2=O)c1F` [elagolix, 4-({(1R)-2-[5-(2-fluoro-3methoxyphenyl)-3-{[2-fluoro-6-(trifluoromethyl)phenyl]methyl}-4-methyl-2,6-dioxo-3,6dihydropyrimidin-1(2H)-yl]-1-phenylethyl}amino)butanoate], in data set [1], the “average percent of parent compound remaining for all isoforms and concentrations” value is greater than 11%. Moreover, in data set [2], the “percent parent remaining, cDNA-expressed CYP2D6” value is given as 62%. The “percent parent remaining, cDNA-expressed CYP3A5” value in data set [3] worked out at 11%.
In the case of `[2H]C([2H])(N[C@@H](Cn1c(=O)c(-c2cccc(OC)c2F)c(C)n(Cc2c(F)cccc2C(F)(F)F)c1=O)c1ccccc1)C([2H])([2H])C([2H])([2H])C(=O)O` [elagolix-d6, 4-[[(1R)-2-[5-(2-fluoro-3-methoxyphenyl)-3-[[2-fluoro-6(trifluoromethyl)phenyl]methyl]-3,6-dihydro-4-methyl-2,6-dioxo-1(2H)-pyrimidinyl]-1-phenylethyl]amino] butanoic acid-d6], in data set [1], the “average percent of parent compound remaining for all isoforms and concentrations” value is greater than 26%; the “average amount of parent compound in a CYP enzyme assay after 120 minutes relative to that of elagolix” value stood at 136%.
Regarding `[2H]C([2H])([2H])Oc1cccc(-c2c(C)n(Cc3c(F)cccc3C(F)(F)F)c(=O)n(C[C@H](NCCCC(=O)O)c3ccccc3)c2=O)c1F` [elagolix-d3, 4-[[(1R)-2-[5-(2-fluoro-3-methoxyphenyl)-3-[[2-fluoro-6(trifluoromethyl)phenyl]methyl]-3,6-dihydro-4-methyl-2,6-dioxo-1(2H)-pyrimidinyl]-1-phenylethyl]amino] butanoic acid-d3], in data set [1], the “average percent of parent compound remaining for all isoforms and concentrations” value is reported as greater than 60%; the “average amount of parent compound in a CYP enzyme assay after 120 minutes relative to that of elagolix” value is listed as “more than 400%”. Besides, the “depletion by cDNA-expressed CYP2D6” value in data set [2] is given as “did not demonstrate any depletion”. The “percent parent remaining, cDNA-expressed CYP3A5” value in data set [3] is 60%.
